Experimental data from patent US20250257075A1, “MACROCYCLIC INHIBITORS OF KRAS FOR THE TREATMENT OF CANCER” (Hoffmann-La Roche Inc., priority 2022, published 2025).

Key:
[1] = target: KRAS G12V binding to BRAF (Homo sapiens, UniProt P01116+P62937, G12V); experiment: KRAS-BRAF with CYPA (500 nM) interaction assay (TR-FRET), G12V; type: biochemical; settings: 3 hours
Protocol: (§1) Kras-BRAF with CYPA (500 nM) Interaction Assay In this example, TR-FRET was also used to measure the compound or compound-CYPA dependent disruption of the KRAS G12C-BRAF complex. This protocol was also used to measure disruption of KRAS G12D or KRAS G12V binding to BRAF by a compound of the invention, respectively. […] TR-FRET signal was read on a […] microplate reader (Ex320 nm, Em 665/615 nm). Compounds that facilitate disruption of the KRAS-BRAF complex were identified as those eliciting a decrease in the TR-FRET ratio relative to DMSO control wells.

[2] = system: phosphorylation of ERK, KRAS G12C in NCI-H358 cells; experiment: pERK inhibition assay, G12C; type: cell-based, human; settings: NCI-H358, 4 hours of incubation
How it was run: (§2)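 NCI-H358 (G12C), AGS (G12D) and SW620 (G12V) cells were seeded overnight at 30,000, 20,000 and 30,000 cells/well, respectively. They were then treated 4 h with compound (0.5% DMSO final), fixed, and methanol-permeabilized. pERK was detected by in-cell ELISA (anti-pERK/HRP, TMB, OD450); IC50 from a 4-parameter sigmoidal fit.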

SW620 cells (KRAS G12V) = experiment: Cell viability assay, G12V; type: cell-based, human; settings: SW620, 72 hrs, Cell Counting Kit-8
How it was run: (§3)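 Seed NCI-H358 5,000/well, AGS and SW620 2,000/well; overnight. Compound, 0.5% DMSO final, 72 hrs. CCK-8 2 hrs, OD450–OD650. IC50: 4-parameter fit.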

AGS cells (KRAS G12D) = experiment: Cell viability assay, G12D; type: cell-based, human; settings: 72 hrs, Cell Counting Kit-8
How it was run: as §3

[3] = system: phosphorylation of ERK, KRAS G12D in AGS cells; experiment: pERK inhibition assay, G12D; type: cell-based, human; settings: 4 hours of incubation
How it was run: as §2

[4] = system: NCI-H358 cells (KRAS G12C); experiment: Cell viability assay, G12C; type: cell-based, human; settings: NCI-H358, 72 hrs, Cell Counting Kit-8
How it was run: as §3

KRAS G12C-BRAF complex [5] = target: T1, KRAS G12C-BRAF complex (Homo sapiens, UniProt P01116+P62937, G12C); experiment: KRAS G12C-BRAF NanoBit assay in HEK293 cells; type: cell-based; settings: HEK293 stable cell pool, 3 hours of incubation
T1 construct: expressed in transfected cells
How it was run: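 HEK293 stable pool co-expressing SmBiT-KRAS G12C and BRAF RBD-LgBiT, exposed 3 h to compounds (16-point 3-fold dilution, top final 30 μM). Luminescence was read 20 min after Nano-Glo Live Cell substrate addition. A decrease versus DMSO control indicates disruption of the complex.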

[6] = target: KRAS G12D binding to BRAF (Homo sapiens, UniProt P01116+P62937, G12D); experiment: KRAS-BRAF with CYPA (500 nM) interaction assay (TR-FRET), G12D; type: biochemical; settings: 3 hours
Protocol: as §1

[7] = system: phosphorylation of ERK, KRAS G12V in SW620; experiment: pERK inhibition assay, G12V; type: cell-based, human; settings: SW620, 4 hours of incubation
How it was run: as §2

KRAS G12C-BRAF complex [8] = target: T1, KRAS G12C-BRAF complex; experiment: KRAS-BRAF with CYPA (500 nM) interaction assay (TR-FRET), G12C; type: biochemical; settings: 3 hours
Protocol: as §1

Sequence of KRAS G12V binding to BRAF (P01116 1-188 isoform P01116-2 G12V): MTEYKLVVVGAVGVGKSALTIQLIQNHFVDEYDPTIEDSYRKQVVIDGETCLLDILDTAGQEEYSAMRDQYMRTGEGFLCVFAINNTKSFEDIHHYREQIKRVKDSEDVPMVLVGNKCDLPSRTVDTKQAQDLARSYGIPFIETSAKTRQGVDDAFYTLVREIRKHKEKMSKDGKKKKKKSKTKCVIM
Sequence of KRAS G12V binding to BRAF (P62937 whole entry): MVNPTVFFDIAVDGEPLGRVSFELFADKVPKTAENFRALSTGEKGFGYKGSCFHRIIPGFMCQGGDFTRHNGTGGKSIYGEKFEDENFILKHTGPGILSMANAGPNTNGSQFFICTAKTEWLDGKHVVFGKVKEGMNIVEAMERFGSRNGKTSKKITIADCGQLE
T1 sequence (P01116 1-188 isoform P01116-2 G12C): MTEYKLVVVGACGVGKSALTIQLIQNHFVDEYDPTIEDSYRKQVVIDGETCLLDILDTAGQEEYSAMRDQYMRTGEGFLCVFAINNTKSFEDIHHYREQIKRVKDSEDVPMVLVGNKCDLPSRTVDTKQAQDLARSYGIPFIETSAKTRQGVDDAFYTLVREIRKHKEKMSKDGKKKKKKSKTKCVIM
T1 sequence (P62937 whole entry): as the sequence (P62937 whole entry) above
Sequence of KRAS G12D binding to BRAF (P01116 1-188 isoform P01116-2 G12D): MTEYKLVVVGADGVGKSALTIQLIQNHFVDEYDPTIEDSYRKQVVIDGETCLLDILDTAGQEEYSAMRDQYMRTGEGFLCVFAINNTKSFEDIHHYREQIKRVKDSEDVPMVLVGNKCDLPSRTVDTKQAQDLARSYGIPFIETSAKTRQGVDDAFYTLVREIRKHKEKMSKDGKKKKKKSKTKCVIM
Sequence of KRAS G12D binding to BRAF (P62937 whole entry): as the sequence (P62937 whole entry) above

Compound | IC50 [1] | IC50 ([2]; Homo sapiens) | IC50 (SW620 cells (KRAS G12V); Homo sapiens, SW-620) | IC50 (AGS cells (KRAS G12D); Homo sapiens) | IC50 ([3]; Homo sapiens) | IC50 ([4]; Homo sapiens) | IC50 (KRAS G12C-BRAF complex [5]) | IC50 [6] | IC50 ([7]; Homo sapiens, SW-620) | IC50 (KRAS G12C-BRAF complex [8]) | IC50 [2] | IC50 (SW620 cells (KRAS G12V)) | IC50 (AGS cells (KRAS G12D)) | IC50 [3] | IC50 [4] | IC50 [7]
CO[C@@H](C)c1ncc(N2CCN(C)CC2)cc1-c1c2c3cc(c(F)cc3n1CC(F)(F)F)-c1csc(n1)C[C@H](NC(=O)[C@H](C(C)C)N(C)C(=O)[C@H]1C[C@@H](C#Cc3ncc(C(F)(F)F)cn3)C1)C(=O)N1CCC[C@H](N1)C(=O)OCC(C)(C)C2 (atropisomer, axis not shown; (M)) [Example 13, cis-N-[(1S)-1-[[(7S,13S)-24-fluoro-(20M)-20-[2-[(1S)-1-methoxyethyl]-5-(4-methylpiperazin-1-yl)-3-pyridyl]-17,17-dimethyl-8,14-dioxo-21-(2,2,2-trifluoroethyl)-15-oxa-4-thia-9,21,27,28-tetrazapentacyclo[17.5.2.1^2,5.1^9,13.0^22,26]octacosa-1(25),2,5(28),19,22(26),23-hexaen-7-yl]carbamoyl]-2-methyl-propyl]-N-methyl-3-[2-[5-(trifluoromethyl)pyrimidin-2-yl]ethynyl]cyclobutanecarboxamide] | > 10 µM | 0.045 µM | 0.036 µM | 0.328 µM | 1.81 µM | 0.006 µM | 0.22 µM | > 10 µM | 0.056 µM | 0.065 µM |  |  |  |  |  | 
CCn1c(-c2cc(N3CCN(C)CC3)cnc2[C@H](C)OC)c2c3cc(c(F)cc31)-c1csc(n1)C[C@H](NC(=O)[C@H](C(C)C)N(C)C(=O)N1CC(C#CC(F)(F)F)C1)C(=O)N1CCC[C@H](N1)C(=O)OCC(C)(C)C2 (atropisomer, axis not shown; (M)) [Example 14, N-[(1S)-1-[[(7S,13S)-21-ethyl-24-fluoro-(20M)-20-[2-[(1S)-1-methoxyethyl]-5-(4-methylpiperazin-1-yl)-3-pyridyl]-17,17-dimethyl-8,14-dioxo-15-oxa-4-thia-9,21,27,28-tetrazapentacyclo[17.5.2.1^2,5.1^9,13.0^22,26]octacosa-1(25),2,5(28),19,22(26),23-hexaen-7-yl]carbamoyl]-2-methyl-propyl]-N-methyl-3-(3,3,3-trifluoroprop-1-ynyl)azetidine-1-carboxamide] | 1.88 µM | 0.005 µM | 0.007 µM | > 10 µM | 0.02 µM | 0.001 µM | 0.036 µM | 4.3 µM | 0.003 µM | 1.66 µM |  |  |  |  |  | 
CO[C@@H](C)c1ncc(N2CCN(C)CC2)cc1-c1c2c3cc(c(F)cc3n1CC(F)(F)F)-c1csc(n1)C[C@H](NC(=O)[C@H](C(C)C)N(C)C(=O)[C@H]1C[C@@H](C#Cc3ncccn3)C1)C(=O)N1CCC[C@H](N1)C(=O)OCC(C)(C)C2 (relative stereo) [Example 5, cis-N-[(1S)-1-[[(7S,13S)-24-fluoro-(20M)-20-[2-[(1S)-1-methoxyethyl]-5-(4-methylpiperazin-1-yl)-3-pyridyl]-17,17-dimethyl-8,14-dioxo-21-(2,2,2-trifluoroethyl)-15-oxa-4-thia-9,21,27,28-tetrazapentacyclo[17.5.2.1^2,5.1^9,13.0^22,26]octacosa-1(25),2,5(28),19,22(26),23-hexaen-7-yl]carbamoyl]-2-methyl-propyl]-N-methyl-3-(2-pyrimidin-2-ylethynyl)cyclobutanecarboxamide] | 1.1 µM |  |  |  |  |  | 0.106 µM | 9.95 µM |  | 0.128 µM | 0.058 µM | 0.23 µM | 0.536 µM | 0.145 µM | 0.007 µM | < 0.001 µM
CO[C@@H](C)c1ncc(N2CCN(C)CC2)cc1-c1c2c3cc(c(F)cc3n1CC(F)(F)F)-c1csc(n1)C[C@H](NC(=O)[C@@H](CC(=O)N1CC(C#CC(F)(F)F)C1)C(C)C)C(=O)N1CCC[C@H](N1)C(=O)OCC(C)(C)C2 [Example 19, (2S)—N-[(7S,13S)-24-fluoro-(20M)-20-[2-[(1S)-1-methoxyethyl]-5-(4-methylpiperazin-1-yl)-3-pyridyl]-17,17-dimethyl-8,14-dioxo-21-(2,2,2-trifluoroethyl)-15-oxa-4-thia-9,21,27,28-tetrazapentacyclo[17.5.2.1^2,5.1^9,13.0^22,26]octacosa-1(25),2,5(28),19,22(26),23-hexaen-7-yl]-2-isopropyl-4-oxo-4-[3-(3,3,3-trifluoroprop-1-ynyl)azetidin-1-yl]butanamide] | 2.25 µM | 0.221 µM | 0.653 µM | 3.34 µM | > 10 µM | 0.166 µM | 0.075 µM | > 10 µM | 0.198 µM | 0.24 µM |  |  |  |  |  | 
